Test results reported in PubChem BioAssay (NCI).
“And” between values parts separate entries of the source, which are not always exact repeats. Identical values can stand only once.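 In this assay, cells in 96-well plates receive the compound at five concentrations for 48 hours. Endpoints are linearly interpolated between the surrounding concentrations. Here, GI50 denotes the concentration required for 50% inhibition of growth. TGI marks complete inhibition of growth.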

Experiments:
Assay in all cases: inhibition of tumour cell growth, NCI panel, 48 h
[1] = tested on: CCRF-CEM leukemia
[2] = tested on: T-47D breast
[3] = tested on: HS 578T breast
[4] = tested on: CAKI-1 renal
[5] = tested on: RPMI-8226 leukemia
[6] = tested on: IGROV1 ovarian
[7] = tested on: NCI-H23 lung
[8] = tested on: SN12C renal
[9] = tested on: MOLT-4 leukemia
[10] = tested on: NCI-H226 lung

SMILES	TGI [1]	TGI [2]	TGI [3] [µM]	TGI [4]	TGI [5]	TGI [6]	TGI [7]	TGI [8] [µM]	TGI [9]	TGI [10]	GI50 [1]	GI50 [2]	GI50 [3]	GI50 [4]	GI50 [5]	GI50 [6] [µM]	GI50 [7]	GI50 [8] [µM]	GI50 [9]	GI50 [10]
c1ccc(CN2CCc3[nH]c4ccccc4c3C2)cc1	> 82.6 µM	47.2 µM	79.9	> 100 µM	69.3 µM	> 79.5 µM	> 92.6 µM	> 78.7	66.1 µM	> 96.8 µM										
Cc1ccc(C(=O)NCCCOc2ccc(N3C(N)=NC(N)=NC3(C)C)cc2Cl)cc1S(=O)(=O)F	> 100 µM	> 100 µM	> 100	> 100 µM	> 100 µM	> 100 µM	> 100 µM	> 100	> 100 µM	> 100 µM	5.33 µM	> 100 µM	> 100 µM	> 100 µM	24.7 µM	4.42	12.8 µM	6.54	> 100 µM	> 100 µM
COc1cccc(/C=C/c2nc3c(cnn3-c3ccccc3)c(=O)[nH]2)c1	> 100 µM	> 100 µM	> 100	> 100 µM	> 100 µM	> 100 µM	> 100 µM	> 100	> 100 µM	> 100 µM	> 100 µM		13.7 µM	> 45.6 µM	> 100 µM	13	> 100 µM	> 100	> 100 µM	> 100 µM
COc1cc(Cl)cc(-c2nn(-c3cccc(NC(=O)Nc4cccc(C(F)(F)F)c4)c3)cc2-c2ccncc2)c1	5.36 µM	6.99 µM	> 100	8.9 µM	2.3 µM	22.7 µM	6.69 µM	18.5	4.35 µM	11.5 µM	1.2 µM	1.23 µM	4.06 µM	1.29 µM	0.43 µM	2.86	1.76 µM	2.06	1.14 µM	2.26 µM
C=C1C(=O)OC2C1C(OC(=O)/C(C)=C/C)CC(O)(CCl)C1C(O)C=C(C)C21O (stereo not given)	> 36.8 µM	42.2 µM	> 100	11.4 µM	30.6 µM	31.6 µM	28.3 µM	29.4	20.6 µM	46.5 µM										
CS(=O)(=O)Nc1cc(-c2ccc3ncnc(Nc4ccc(F)c(Cl)c4)c3c2)cnc1Cl	11.9 µM and 28.1 µM	0.437 µM and 0.892 µM	2.69	9.55 µM and 2.23 µM	2.67 µM and 3.4 µM	0.495 µM	14.7 µM and 10.6 µM	12.7	1.81 µM and 2.02 µM	22.9 µM and 13.7 µM	0.378 µM and 0.309 µM	0.0323 µM and 0.0901 µM	0.182 µM and 0.19 µM	0.455 µM and 0.326 µM	0.444 µM and 0.598 µM	0.114	0.484 µM and 0.57 µM	0.389	0.311 µM and 0.284 µM	1.63 µM and 1.33 µM
C[C@]12CC[C@@H]3c4ccc(O)cc4CC[C@H]3[C@@H]1CC[C@@H]2NS(=O)(=O)c1ccc(Br)cc1	> 100 µM	10.3 µM	6.15	10.2 µM	7.37 µM	12.1 µM	15.5 µM	3.5	28.7 µM	4.17 µM	3.14 µM	3.35 µM	2.05 µM	3.12 µM	2.68 µM	3.85	3.44 µM	1.79	3.26 µM	2.04 µM
COCCOCCOCc1n(Cc2ccc3ccccc3c2)c2ccccc2[n+]1Cc1ccc2ccccc2c1	2.29 µM	1.12 µM	2.96		1.15 µM	1.55 µM	1.73 µM	1.46	2.43 µM	2.53 µM	0.488 µM	0.216 µM	1.14 µM		0.117 µM	0.328	0.392 µM	0.372	0.693 µM	0.957 µM
O=C(O)C1CC=CCC1C(=O)Nc1cccc(O)c1 (stereo not given)		> 100 µM	> 100	> 100 µM	> 100 µM	> 100 µM	> 100 µM	> 100	> 100 µM	> 100 µM										
CNC(=O)c1cc(Oc2cccc3nc(NC(=O)Nc4cc(C(F)(F)F)cc(C(F)(F)F)c4)ccc23)ccn1	> 100 µM	31.1 µM	13.5	57.3 µM			42.7 µM	> 100	> 100 µM	39.8 µM	29.4 µM	4.13 µM	2.57 µM	10.1 µM			6.15 µM	5.27	35.9 µM	4.21 µM
O=C(NCCc1ccccc1)Nc1ccc2cc3ccc(NC(=O)NCCc4ccccc4)cc3nc2c1	0.945 µM	2.31 µM	0.933	> 100 µM	6.72 µM	3.97 µM	2.48 µM	1.6	0.697 µM	5.85 µM	0.301 µM	0.983 µM	0.276 µM	4.65 µM	2.24 µM	1.44	0.857 µM	0.42	0.258 µM	1.95 µM
CC(=O)Oc1ccc2c(c1)[C@@]1(C)CCCC(C)(C)[C@@H]1CC2	> 100 µM	> 100 µM	56.5	> 100 µM	30.3 µM	> 100 µM	37.6 µM	33.1	> 100 µM	37.4 µM	87.4 µM	37.5 µM	24.7 µM	28 µM	12.1 µM	49.4	19.8 µM	18.6	30.9 µM	18.5 µM
NCCCCCNc1noc(Cc2c[nH]c3cc(Br)ccc23)n1	8.2 µM	30.1 µM	22.1	> 100 µM	25.2 µM	27.4 µM	8.75 µM	16.9	18.6 µM	26.5 µM	1.81 µM	5.15 µM	1.99 µM	6.84 µM	2.88 µM	5.09	1.76 µM	3.54	2.44 µM	12.7 µM
Nc1ccccc1C#C/C=C\C#CC#C/C=C\C#Cc1ccccc1N	16 µM	> 100 µM	56.7	11.8 µM	5.82 µM	17.9 µM	23.3 µM	16.4	18.4 µM	27.2 µM	0.0892 µM	6.47 µM	12.4 µM	2.74 µM	0.515 µM	2.21	5.17 µM	3.05	1.01 µM	3.56 µM
CCOC(=O)C(Cc1c[nH]c2cc(N(CCO)CCO)ccc12)(NC(C)=O)C(=O)OCC	57.2 µM and 448 µM	> 1000 µM	808			> 1000 µM	> 1000 µM	> 1000		> 1000 µM		472 µM	246 µM		65.3 µM	445	491 µM	379		> 1000 µM
Cc1c(Cl)c(=O)oc2cc(OC/C=C3\CCC(=O)O3)ccc12	61.3 µM	36.2 µM	77.4	30.2 µM	42.6 µM	27.5 µM	32.7 µM	41.4	> 100 µM	> 100 µM	12.5 µM	13.6 µM	24.2 µM	11.6 µM	7.63 µM	12.9	17.4 µM	16.8	16.5 µM	34.6 µM
Cc1cc(C(=O)/C=C/c2ccc[nH]2)ccc1-n1ccc(C(F)(F)F)n1	> 100 µM	> 100 µM	> 100	28.7 µM	3.33 µM	4.56 µM	> 100 µM	> 100	> 100 µM	> 100 µM	2.55 µM	4.78 µM	11.1 µM	3.04 µM	0.592 µM	2.02	14.9 µM	6.44	3.66 µM	30 µM
CC(C)(C)OC(=O)NCCCCn1c2c(c3ccccc3c1=O)C(=O)c1ccccc1-2	> 100 µM	79.8 µM	52.8	37.2 µM	> 100 µM	> 100 µM	43.4 µM	69.3	> 100 µM	51.2 µM	9.52 µM	21.9 µM	20.9 µM	10.7 µM	4.42 µM	23	20.8 µM	23.1	4.32 µM	14.1 µM
CC(C)(C)c1cc(C(=O)Nc2ccc(C(=O)NCCN)cc2)cc(C(C)(C)C)c1	7.28 µM	5.58 µM	5.96	32.9 µM			14.4 µM	3.9	7.3 µM	28.1 µM	2.54 µM	2.07 µM	2.2 µM	15.5 µM			3.19 µM	1.98	2.63 µM	6.43 µM
OB(O)c1ccccc1C#Cc1ccccc1B(O)O	> 100 µM	83.6 µM	51	22.1 µM	68.8 µM	13.9 µM	90.9 µM	68	> 100 µM											
CCCCCCCCCCCCCCCCCCNCc1ccc(Cl)cc1	8.66 µM	24.9 µM	30.4		5.71 µM	5.24 µM	12 µM	13.8	4.55 µM	19.2 µM	2.69 µM	4.28 µM	7.97 µM		2.24 µM	1.91	3.07 µM	3.63	1.99 µM	3.7 µM
O=C1/C=C/[C@@H](O)[C@@H]2C[C@@H](O)C[C@H]2/C=C/CCC[C@H](CCc2ccc3ncccc3c2)O1	8.4 µM	8.1 µM	> 100		5.89 µM	> 34 µM	1.18 µM	> 100	1.54 µM		0.306 µM	0.312 µM	1.23 µM	0.282 µM	0.243 µM	0.394	0.219 µM	0.334	0.289 µM	
Nc1nonc1-c1nc2ccccc2n1Cc1ccc(F)cc1		> 100 µM	> 100	> 100 µM		> 100 µM	> 100 µM		> 100 µM	> 100 µM		> 100 µM	3.18 µM	3.48 µM		5.25	87 µM		5.5 µM	> 100 µM
Nc1c(C(=O)Nc2ccccn2)sc2nc3c(cc12)C(O)CCC3 (stereo not given)	> 50 µM		> 50	> 50 µM	> 50 µM	> 50 µM	> 50 µM	> 50	> 50 µM	> 50 µM	0.906 µM		2.07 µM	2.92 µM	1.84 µM	3.27	3.05 µM	2.57	2.08 µM	> 50 µM
O=C1CC[C@H](N2Cc3c(OCc4ccc(CN5CCOCC5)cc4)cccc3C2=O)C(=O)N1	> 100 µM	> 100 µM	> 100	> 100 µM	> 100 µM	> 100 µM		> 100	> 100 µM	> 100 µM	> 100 µM	> 100 µM	> 100 µM	> 100 µM	> 100 µM	> 100		> 100	> 100 µM	> 100 µM
O=C(O)c1cc2ccccc2c2c3c(ccc12)OCO3		750 µM	522	761 µM	738 µM	738 µM	584 µM	> 1000	513 µM	818 µM		209 µM	129 µM	185 µM	139 µM	201	188 µM	174	192 µM	123 µM
CCCCCCCCCC[C@@H](O)[C@@H]1CC[C@@H]([C@@H]2CC[C@@H]([C@@H](O)CCCCCCCCCC[C@H](O)CC3=CC(C)OC3=O)O2)O1 (stereo not given in full)		40.4 µM		> 65.3 µM		7.47 µM and 36.8 µM		> 100		3.49 µM	2.78 µM		14 µM	3.62 µM	7.14 µM	4.4		16	2.93 µM	
O=S(=O)(NCCNc1nccc(-c2c(-c3ccc(F)c(O)c3)nc3sccn23)n1)c1ccc(Cl)cc1		8.28 µM	13.3	10.4 µM		> 50 µM	12.2 µM	> 50		18.4 µM		1.08 µM	1.26 µM	1.99 µM		1.45	3.56 µM	1.54		1.8 µM
